In patent US20060264508A1, “Modulation of ocular growth and myopia by gaba drugs” (priority 2001, published 2006):
“Also recorded” adds a separate entry of the source.

Experiments:
[1] = system: non-goggled eyes; type: in vivo, White leghorn chicks
From the text: Chicks were anesthetized with inhalation ether for all goggle applications and drug injections. The experimental eye was the right eye in half of the chicks, and the left eye in the other half of the chicks, assigned in an alternating order within each group. Form-deprivation myopia was induced by attaching a unilateral translucent white plastic goggle to the periorbital feathers with cyanoacrylate glue. All research conformed with the ARVO Resolution on the Use of Animals in Ophthalmic and Vision Research.
All goggle applications and/or drug injections began when the chicks reached one week of age. At about four hours into the light phase, a 10 μl intravitreal injection of either drug+vehicle or vehicle alone was given under aseptic conditions to the goggled or experimental non-goggled eye, with all contralateral eyes concurrently receiving vehicle injections.
On this day, the animals received no intraocular injections. […] While still under general anesthesia, the chicks were decapitated; and the axial and equatorial dimensions of enucleated eyes were measured with digital calipers. As the coronal profile of the chick eye is elliptical, the equatorial dimension was reported as the mean of the shortest and longest equatorial dimensions.
For goggled chicks, the primary measure of outcome was the drug effect on the ocular response to wearing a goggle, and comparisons of individual doses to each other and to vehicle-treated controls for each drug. Differences in refraction and each size measurement between goggled and contralateral eyes were assessed by one-way analysis of variance (ANOVA). For non-goggled chicks, the primary outcome measure was comparison of drug-treated to contralateral vehicle-treated eyes using a two-way repeated measures ANOVA (one factor replication, using eye as the replicated factor) for refractions and measurements.
The statistical outcomes with the two-way ANOVA are mainly described by the drug-treated to contralateral eye comparison. […] When the ANOVA assumptions of normality or equal variance were not met, the corresponding ANOVA on ranks was used. […] The Figures show the P values when the overall ANOVA reached a significance level of at least P<0.05, and the post-hoc tests for within group comparisons appear in the Tables that follow.

[2] = system: goggled eyes (form-deprivation myopia); details: daily intravitreal injection, result in words
[3] = non-goggled eyes, daily intravitreal dose(s) at which drug-treated differ from contralateral vehicle-treated eyes (P<0.05, Tukey test)
[4] = non-goggled eyes, drug-treated vs contralateral vehicle-treated eyes, result in words

## NCCCP(=O)(O)CC1CCCCC1 [CGP46381, (3-aminopropyl)(cyclo-hexylmethyl)phosphinic acid]
[1]; non-goggled chicks receiving the 10 μg dose, mean±S.E.M.
  lens thickness of contralateral vehicle-treated eyes: 2.26±0.03 mm
[1]; non-goggled chicks, 10 μg dose, mean±S.E.M.
  lens thickness of drug-treated eyes: 2.27±0.04 mm
[1]; non-goggled chicks, contralateral vehicle-treated eyes
  lens thicker in vehicle-treated eyes at 10 μg than at the 100 μg dose: 0.06 mm
[1]; non-goggled chicks, drug-treated eyes
  lens thicker in drug-treated eyes at 10 μg than at the 100 μg dose: 0.07 mm
[1]; [3]
  Equatorial diameter (calipers): n.s. (n.s., P ≧ 0.05 by ANOVA)
  axial length calipers: n.s. (n.s., P ≧ 0.05 by ANOVA)
  axial length ultrasound: n.s. (n.s., P ≧ 0.05 by ANOVA)
  vitreous chamber depth (ultrasound): 100 µg
[1]; [4]
  effect on axial growth / axial length and vitreous chamber depth of non-goggled eyes: slightly enhanced vitreous chamber length
  effect on equatorial diameter of non-goggled eyes: did not exert statistically identifiable changes
  effect on refraction of non-goggled eyes: did not exert statistically identifiable changes
[1]; non-goggled eyes, primary outcome comparison, result in words
  effect on lens thickness / anterior chamber depth, drug-treated vs vehicle-treated eyes: no influence on lens thickness
[2]
  effect on axial dimensions (axial length, vitreous chamber depth; ultrasound or calipers) of goggled eyes: inhibited the myopic refractive shift, the axial and vitreous chamber elongation
  effect on equatorial diameter / equatorial expansion of goggled eyes (calipers): inhibited the myopic refractive shift, the axial and vitreous chamber elongation, and the equatorial expansion
  effect on myopic refraction of goggled eyes: inhibited the myopic refractive shift
  overall effect on form-deprivation myopia (refraction and size measurements) of goggled eyes: potent anti-myopia effects; also recorded: inhibiting myopia and limiting axial vitreous chamber and equatorial expansion
